Laboratory results reported in US20030171379A1, “Methods of treating, preventing, or inhibiting inflammation with Mactanamide compounds” (priority 2001, published 2003).

Tests used:
[1] = tested on: PMA-induced inflammation (edema) of the mouse ear; test: Inhibition of mouse ear edema (PMA mouse ear model); assay type: in vivo; details: topical in acetone, 25 ug/ear Mactanamide with 2 ug/ear PMA, 3 hours 20 minutes, left ear weight minus right ear (acetone) weight
Description: The efficacy of Mactanamide compounds as an anti-inflammatory agent was established by the following assay. Mactanamide was topically applied in acetone to the inside pinnae of the ears of mice in a solution comprising an edema-causing irritant, phorbol 12-myristate 13-acetate (PMA). Specifically, 2 μg/ear of PMA alone or in combination with 25 μg/ear of Mactanamide was applied to the left ears (5 mice per treatment group) and acetone was applied to all right ears. After 3 hours, 20 minutes incubation, the mice were sacrificed, the ears removed and bores taken and weighed. Edema was measured by subtracting the weight of the right ear (acetone control) from the weight of the left ear (treated). Results were recorded as % decrease (inhibition) or % increase (potentiation) in edema relative to the PMA control group edema.

[2] = tested on: RTX-induced inflammation (edema) of the mouse ear; test: Resiniferatoxin (RTX) assay, mouse ear edema; assay type: in vivo; details: topical in acetone, 50 ug/ear Mactanamide with 0.1 ug RTX per ear, 30 minutes, left ear weight minus right ear (acetone) weight
Description: A control, acetone, was applied to all right ears. After a 30 minute incubation, the mice were sacrificed, the ears removed, and bores taken and weighed.
Edema was measured by subtracting the weight of the right ear (control) from the weight of the left ear. The results were recorded as % decrease (inhibition) or % increase (potentiation) in edema relative to the control group edema.

CN1C(=O)C(Cc2c(O)cccc2O)NC(=O)C1Cc1ccccc1 (centres unmarked) [Mactanamide]
Edema (mg ± SEM) [1]: 2.6 ± 1.1 mg
Edema (mg ± SEM) [2]: 0.9 ± 0.5 mg
